Here are results for 18 compounds from patent US20140221361A1, “C-19 MODIFIED TRITERPENOIDS WITH HIV MATURATION INHIBITORY ACTIVITY” (priority 2013, published 2014).

SMILES strings stand for the structures.

One experiment has as its system recombinant NL4-3 virus (Renilla luciferase in nef, Gag P373S). The experiment in a line: HIV cell culture assay (luciferase reporter, MT-2 cells). Format: cell-based, HIV-1. Conditions: MT-2 cells infected for 4-5 days with NLRluc recombinants; luciferase activity; serial dilutions of inhibitor. The method in brief: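 MT-2 cells infected with recombinant NL4-3 carrying Renilla luciferase in place of part of nef and Gag P373S, virus made by 293T transfection. Infection ran 4-5 days with serial inhibitor dilutions. Antiviral activity read as luciferase activity (Dual Luciferase reagents mixed with lysis buffer).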
In general terms: A reporter such as luciferase makes a cellular process visible.
What is called EC50 is the concentration needed to bring the measured effect to its halfway point. As to `CC([C@@H]1CC[C@]2(NCCN3CCS(=O)(=O)CC3)CC[C@]3(C)[C@H](CC[C@@H]4[C@@]5(C)CC=C(c6ccc(C(=O)O)cc6)C(C)(C)[C@@H]5CC[C@]43C)[C@@H]12)N(C)C` (single isomer, unassigned) [Example B40], the EC50 is 40 nM.
Take `CC([C@@H]1CC[C@]2(NCCN3CCS(=O)(=O)CC3)CC[C@]3(C)[C@H](CC[C@@H]4[C@@]5(C)CC=C(c6ccc(C(=O)O)cc6)C(C)(C)[C@@H]5CC[C@]43C)[C@@H]12)N(C)C` (single isomer, unassigned) [Example B39]: the concentration for a half-maximal effect (EC50) came to 4.33 nM.

Staying with this experiment, now noted: Renilla, NL43, MT-2 cells infected for 4-5 days with NLRluc recombinants; luciferase activity; serial dilutions of inhibitor.
As for `C=C(COCCN1CCOCC1)[C@@H]1CC[C@]2(C(=O)O)CC[C@]3(C)[C@H](CC[C@@H]4[C@@]5(C)CC=C(c6ccc(C(=O)O)cc6)C(C)(C)[C@@H]5CC[C@]43C)[C@@H]12` [Example 11, (1R,3aS,5aR,5bR,7aR,11aS,11bR,13aR,13bS)-9-(4-carboxyphenyl)-5a,5b,8,8,11a-pentamethyl-1-(3-(2-morpholinoethoxy)prop-1-en-2-yl)-2,3,3a,4,5,5a,5b,6,7,7a,8,11,11a,11b,12,13,13a,13b-octadecahydro-1H-cyclopenta[a]chrysene-3a-carboxylic acid], the EC50 was determined as 20 nM.
Same read-out and setting: to `CC1([C@@H]2CC[C@]3(NCCN4CCS(=O)(=O)CC4)CC[C@]4(C)[C@H](CC[C@@H]5[C@@]6(C)CC=C(c7ccc(C(=O)O)cc7)C(C)(C)[C@@H]6CC[C@]54C)[C@@H]23)CC1` [Example B52, 4-((1R,3aS,5aR,5bR,7aR,11aS,11bR,13aR,13bR)-3a-((2-(1,1-dioxidothiomorpholino)ethyl)amino)-5a,5b,8,8,11a-pentamethyl-1-(1-methylcyclopropyl)-2,3,3a,4,5,5a,5b,6,7,7a,8,11,11a,11b,12,13,13a,13b-octadecahydro-1H-cyclopenta[a]chrysen-9-yl)benzoic acid] belongs 0.924 nM; to `CC(NC(=O)C(F)(F)F)[C@@H]1CC[C@]2(NCCN3CCS(=O)(=O)CC3)CC[C@]3(C)[C@H](CC[C@@H]4[C@@]5(C)CC=C(c6ccc(C(=O)O)cc6)C(C)(C)[C@@H]5CC[C@]43C)[C@@H]12` (stereo partly drawn) [Example B23, 4-((1R,3aS,5aR,5bR,7aR,11aS,11bR,13aR,13bS)-3a-((2-(1,1-dioxidothiomorpholino)ethyl)amino)-5a,5b,8,8,11a-pentamethyl-1-(1-(2,2,2-trifluoroacetamido)ethyl)-2,3,3a,4,5,5a,5b,6,7,7a,8,11,11a,11b,12,13,13a,13b-octadecahydro-1H-cyclopenta[a]chrysen-9-yl)benzoic acid], 1.16 nM; to `C=C(CO)[C@@H]1CC[C@]2(N)CC[C@]3(C)[C@H](CC[C@@H]4[C@@]5(C)CC=C(c6ccc(C(=O)O)c(F)c6)C(C)(C)[C@@H]5CC[C@]43C)[C@@H]12` [Example A2], 10 nM.
The same measure, in the same setting: for `C=C(COCCN1CCOCC1)[C@@H]1CC[C@]2(C(=O)NCCC(=O)O)CC[C@]3(C)[C@H](CC[C@@H]4[C@@]5(C)CC=C(c6ccc(C(=O)O)cc6)C(C)(C)[C@@H]5CC[C@]43C)[C@@H]12` [Example 12, 4-((1R,3aS,5aR,5bR,7aR,11aS,11bR,13aR,13bS)-3a-(2-carboxyethylcarbamoyl)-5a,5b,8,8,11a-pentamethyl-1-(3-(2-morpholinoethoxy)prop-1-en-2-yl)-2,3,3a,4,5,5a,5b,6,7,7a,8,11,11a,11b,12,13,13a,13b-octadecahydro-1H-cyclopenta[a]chrysen-9-yl)benzoic acid] the value was 140 nM; for `CC(=NO)[C@@H]1CC[C@]2(NCCN3CCS(=O)(=O)CC3)CC[C@]3(C)[C@H](CC[C@@H]4[C@@]5(C)CC=C(c6ccc(C(=O)O)cc6)C(C)(C)[C@@H]5CC[C@]43C)[C@@H]12` (single isomer, unassigned) [Example B14], 3.75 nM; for `C=C(CN(C)CCN(C)C)[C@@H]1CC[C@]2(C(=O)NCCN(C)C)CC[C@]3(C)[C@H](CC[C@@H]4[C@@]5(C)CC=C(c6ccc(C(=O)O)cc6)C(C)(C)[C@@H]5CC[C@]43C)[C@@H]12` [Example 8, 4-((1R,3aS,5aR,5bR,7aR,11aS,11bR,13aR,13bS)-1-(3-((2-(dimethylamino)ethyl)(methyl)amino)prop-1-en-2-yl)-3a-(2-(dimethylamino)ethylcarbamoyl)-5a,5b,8,8,11a-pentamethyl-2,3,3a,4,5,5a,5b,6,7,7a,8,11,11a,11b,12,13,13a,13b-octadecahydro-1H-cyclopenta[a]chrysen-9-yl)benzoic acid], 1.49 nM.
Take `COCC(C)[C@@H]1CC[C@]2(NCCN3CCS(=O)(=O)CC3)CC[C@]3(C)[C@H](CC[C@@H]4[C@@]5(C)CC=C(c6ccc(C(=O)O)cc6)C(C)(C)[C@@H]5CC[C@]43C)[C@@H]12` (stereo partly drawn) [Example B7, 4-((1R,3aS,5aR,5bR,7aR,11aS,11bR,13aR,13bR)-3a-((2-(1,1-dioxidothiomorpholino)ethyl)amino)-1-(1-methoxypropan-2-yl)-5a,5b,8,8,11a-pentamethyl-2,3,3a,4,5,5a,5b,6,7,7a,8,11,11a,11b,12,13,13a,13b-octadecahydro-1H-cyclopenta[a]chrysen-9-yl)benzoic acid]: the concentration giving a half-maximal response (EC50) is 0.945 nM.
Still for that read-out and setting: to `CN[C@]12CC[C@@H](C3(C)CC3)[C@@H]1[C@H]1CC[C@@H]3[C@@]4(C)CC[C@H](c5ccc(C(=O)O)cc5)C(C)(C)[C@@H]4CC[C@@]3(C)[C@]1(C)CC2` [Example B55] belongs 1.51 nM; to `CC1([C@@H]2CC[C@]3(NCCN4CCC(S(C)(=O)=O)CC4)CC[C@]4(C)[C@H](CC[C@@H]5[C@@]6(C)CC=C(c7ccc(C(=O)O)cc7)C(C)(C)[C@@H]6CC[C@]54C)[C@@H]23)CC1` [Example B53, 4-((1R,3aS,5aR,5bR,7aR,11aS,11bR,13aR,13bR)-5a,5b,8,8,11a-pentamethyl-1-(1-methylcyclopropyl)-3a-(2-(4-(methylsulfonyl)piperidin-1-yl)ethylamino)-2,3,3a,4,5,5a,5b,6,7,7a,8,11,11a,11b,12,13,13a,13b-octadecahydro-1H-cyclopenta[a]chrysen-9-yl)benzoic acid], 1.03 nM; to `CC(N)[C@@H]1CC[C@]2(NCCN3CCS(=O)(=O)CC3)CC[C@]3(C)[C@H](CC[C@@H]4[C@@]5(C)CC=C(c6ccc(C(=O)O)cc6)C(C)(C)[C@@H]5CC[C@]43C)[C@@H]12` (single isomer, unassigned) [Example B19], 30 nM.
The same measure, in the same setting: for `C=C(CNCCN(C)C)[C@@H]1CC[C@]2(C(=O)NCCC(=O)O)CC[C@]3(C)[C@H](CC[C@@H]4[C@@]5(C)CC=C(c6ccc(C(=O)O)cc6)C(C)(C)[C@@H]5CC[C@]43C)[C@@H]12` [Example 9, 4-((1R,3aS,5aR,5bR,7aR,11aS,11bR,13aR,13bS)-3a-(2-carboxyethylcarbamoyl)-1-(3-(2-(dimethylamino)ethylamino)prop-1-en-2-yl)-5a,5b,8,8,11a-pentamethyl-2,3,3a,4,5,5a,5b,6,7,7a,8,11,11a,11b,12,13,13a,13b-octadecahydro-1H-cyclopenta[a]chrysen-9-yl)benzoic acid] the value was 90 nM; for `C=C(CNCCC(=O)O)[C@@H]1CC[C@]2(C(=O)O)CC[C@]3(C)[C@H](CC[C@@H]4[C@@]5(C)CC=C(c6ccc(C(=O)O)cc6)C(C)(C)[C@@H]5CC[C@]43C)[C@@H]12` [Example 6, (1R,3aS,5aR,5bR,7aR,11aS,11bR,13aR,13bS)-1-(3-(2-carboxyethylamino)prop-1-en-2-yl)-9-(4-carboxyphenyl)-5a,5b,8,8,11a-pentamethyl-2,3,3a,4,5,5a,5b,6,7,7a,8,11,11a,11b,12,13,13a,13b-octadecahydro-1H-cyclopenta[a]chrysene-3a-carboxylic acid], 4000 nM; for `CC1([C@@H]2CC[C@]3(NCCN4CCS(=O)(=O)CC4)CC[C@]4(C)[C@H](CC[C@@H]5[C@@]6(C)CC=C(c7ccc(C(=O)O)c(F)c7)C(C)(C)[C@@H]6CC[C@]54C)[C@@H]23)CO1` (stereo partly drawn) [Example A3, 4-((1R,3aS,5aR,5bR,7aR,11aS,11bR,13aR,13bS)-3a-((2-(1,1-dioxidothiomorpholino)ethyl)amino)-5a,5b,8,8,11a-pentamethyl-1-(2-methyloxiran-2-yl)-2,3,3a,4,5,5a,5b,6,7,7a,8,11,11a,11b,12,13,13a,13b-octadecahydro-1H-cyclopenta[a]chrysen-9-yl)-2-fluorobenzoic acid], 10 nM.
Same read-out and setting: for `CNC(C)[C@@H]1CC[C@]2(NCCN3CCS(=O)(=O)CC3)CC[C@]3(C)[C@H](CC[C@@H]4[C@@]5(C)CC=C(c6ccc(C(=O)O)cc6)C(C)(C)[C@@H]5CC[C@]43C)[C@@H]12` (stereo partly drawn) [Example B35, 4-((1R,3aS,5aR,5bR,7aR,11aS,11bR,13aR,13bS)-3a-((2-(1,1-dioxidothiomorpholino)ethyl)amino)-5a,5b,8,8,11a-pentamethyl-1-(1-(methylamino)ethyl)-2,3,3a,4,5,5a,5b,6,7,7a,8,11,11a,11b,12,13,13a,13b-octadecahydro-1H-cyclopenta[a]chrysen-9-yl)benzoic acid] the value was 4.24 nM.
With `C=C(COCCN1CCOCC1)[C@@H]1CC[C@]2(C(=O)NCCCn3ccnc3)CC[C@]3(C)[C@H](CC[C@@H]4[C@@]5(C)CC=C(c6ccc(C(=O)O)cc6)C(C)(C)[C@@H]5CC[C@]43C)[C@@H]12` [Example 16, 4-((1R,3aS,5aR,5bR,7aR,11aS,11bR,13aR,13bS)-3a-(3-(1H-imidazol-1-yl)propylcarbamoyl)-5a,5b,8,8,11a-pentamethyl-1-(3-(2-morpholinoethoxy)prop-1-en-2-yl)-2,3,3a,4,5,5a,5b,6,7,7a,8,11,11a,11b,12,13,13a,13b-octadecahydro-1H-cyclopenta[a]chrysen-9-yl)benzoic acid], the EC50 was 2.48 nM.
